Target: mutant-MDM2-p53 complex (Homo sapiens, UniProt Q00987, E23G/S22P)
Assay: Competitive AIDA-NMR antagonist-induced dissociation assay
Type: binding
Conditions: compared with the WT-MDM2-p53 complex

Chain of mutant-MDM2-p53 complex (Q00987 1-125 S22P/E23G, one chain of several): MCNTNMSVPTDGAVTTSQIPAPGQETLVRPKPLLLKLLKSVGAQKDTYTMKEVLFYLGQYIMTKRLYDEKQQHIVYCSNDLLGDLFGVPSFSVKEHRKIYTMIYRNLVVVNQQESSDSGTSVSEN

`COc1ccc(C2=N[C@@H](c3ccc(Cl)cc3)[C@@H](c3ccc(Cl)cc3)N2C(=O)N2CCNC(=O)C2)c(OC(C)C)c1` [nutlin-3] was tested, and the “effectiveness in dissociating the mutant-MDM2-p53 complex” value was “less effective”.

Source: publication PMC4104591 (Structure (London, England : 1993), 2013)
